Experimental data as given in patent publication US20250041252A1, “POWDERS FOR INHALATION AND PRODUCTION PROCESS THEREOF” (UNIVERSITA' DEGLI STUDI DI PARMA, priority 2021, published 2025).

Details: about 8 mg of LANE, end of test, filter wash
Excerpt: The apparatus is consisting of an upper part, the donor chamber, and a lower part, the receiving chamber, held together by means of a metal clamp, but separated by a glass microfiber filter, used as a diffusion membrane, and placed horizontally in contact with the dissolution medium. The receiving chamber contains a magnetic stirrer.
The dissolution medium used for the analysis is phosphate buffered saline (PBS), prepared weighing 8 g of NaCl, 0.2 g of KCl, 1.44 g of Na2HPO4, and 0.12 g of KH2PO4 dissolved in 1 L of distilled water, with a final pH of 7.4. During the analysis, RespiCell™ was thermostated (Lauda eco silver E4, DE) at 37±0.5° C.
The receiving chamber was filled with PBS and sampled at pre-established time intervals through the side arm of the cell. Before the analysis 1 mL of the dissolution medium was applied on the filter, to get it completely wet.
To assess the not dissolved or trapped in the filter drug amount, the not dissolved residual powder was recovered washing the filter with 5 mL of a methanol:water 75:25 v/v mixture, at the end of the experiment. The drug amount in the samples was quantified by HPLC analysis.

Q: Which “Lidocaine retained on and inside the filter” value does the source give for CCN(CC)CC(=O)Nc1c(C)cccc1C [Lidocaine powder raw material, lidocaine] here?
A: The value was 0.1 ± 0.0 mg.
